Results on six molecules are retold here after patent US9649292B2, “Method for treating prostate cancer and/or gastrointestinal cancer” (King Fahd University of Petroleum and Minerals, priority 2015, dated 2017).

Series [1] concerns PC3 cells. Description: MTT assay for antiproliferative effects at fixed concentration. Type of series: cell-based, human. The conditions noted are these: PC3, 10 μM, 24 and 72 h. On the procedure:
(§1) An MTT assay was used to obtain the number of living cells in the sample. Human gastric cancer SGC7901 and prostate cancer PC3 cells were seeded on 96-well plates at a predetermined optimal cell density, i.e. ca. 6,000 cells/100 μL per well in 96-well plates, to ensure exponential growth in the duration of the assay. After 24 h pre-incubation, the growth medium was replaced with the experimental medium containing the appropriate drug, using one of gold(III) compounds 1, 2 and 3 or a control using water. Six duplicate wells were set up for each sample, and cells untreated with drug served as a control. In one set of culture plates, human gastric cancer SGC7901 and human prostate PC3 cells were treated with 10 μM compounds 1, 2 and 3 as the drug and the control (water) for 24, 48 and 72 h. In other sets, the compounds 1, 2 and 3 with different concentration, i.e. 10, 20 and 30 μM, were employed to determine the growth inhibitory effect for both PC3 and SGC7901cells separately. After incubation, 10 μL MTT (6 g/L, Sigma) was added to each well and the incubation was continued for 4 h at 37° C. After removal of the medium, MTT stabilization solution [dimethylsulfoxide (DMSO): ethanol (C2H5OH)=1:1 in v/v ratio] was added to each well, and shaken for 10 min until all crystals were dissolved. Then, the optical density was detected in a micro plate reader at 550 nm wavelength using an Enzyme-Linked Immuno-Sorbent Assay (ELISA) reader. After being treated with gold(III) complexes 1, 2 and 3, the cell viability was examined by MTT assay. Each assay was performed in triplicate. An MTT assay for the inhibitory effect has been used for compounds 1, 2 and 3 against PC3 and SGC7901 cells. These cells were treated with various concentrations of compounds 1, 2 and 3 for 24-72 h.
For orientation: Tetrazolium assays rely on reduction of a dye to a coloured formazan, in cell work by metabolically active cells.

Series [2] deals with SGC7901 cells. The series is described as above. Type of series: cell-based, human. The conditions noted are these: SGC7901, 10 μM, 24 and 72 h. Here is the method:
as §1

Series [3] in a line: Cyclic voltammetry in phosphate buffer. It counts as physicochemical. The conditions noted are these: phosphate buffer pH 7.4, platinum electrode, 50 mV/s, 1.0 mM. Here is the method: The electrochemical experiments were performed at room temperature using a potentiostat (SP-300, Bio-Logic Science Instruments) controlled by EC-Lab v10.34 software package. The electrochemical experiments were performed at room temperature. All the measurements were performed on solutions de-aerated by bubbling ultra-pure nitrogen for 15 min. The values of reduction potential here reported were measured against a saturated calomel electrode (SCE). The cyclic voltammetry of the compounds 1, 2 and 3 were measured at scan rate of 50 mV/s on a reference buffer (40 mM phosphate, 4 mM NaCl, pH 7.4) using platinum as working electrode and graphite as a counter electrode with a concentration of 1.0 mM at room temperature. Ferrocene was used as pseudo reference to calibrate the working electrode. The couple FeIII/II formal potential of ferrocene occur at E^o/=+0.44 V (vs SCE) in 0.1 MBu4NPF6 solution in CH3CN solvent which is similar to the report value under the same experimental condition [Hans J, Beckmann A, Kruger H-J (1999) Stabilization of Copper(III) ions with deprotonated hydroxyiminoamide ligands: syntheses, structures, and electronic properties of Copper(III) and Copper(III) complexes. Eur J Inorg Chem 1:163-172—incorporated herein by reference in its entirety]. Conversion to values vs ENH was obtained upon adding +0.24 V to the corresponding SCE values.
Gold(III) complexes 1, 2 and 3 show one irreversible reduction process in which the controlled potential coulometry involves three electrons per mole. The occurrence of Au(III)/Au(0) reduction is visually indicated by the appearance of a thin gold layer deposited on the platinum electrode surface after exhaustive electrolysis (Ew, −0.7 V).

For series [4], the system named is PC3 cells. Put plainly: In vitro cytotoxic MTT assay, IC50. Type of series: cell-based, human. Conditions: 72 h exposure. Here is the method: (§2) Human prostate PC3 and gastric SGC7901 cells were used throughout the examples of the present disclosure. Cells were cultured in Dulbecco's Modified Eagle Medium (DMEM) supplemented with 10% fetal calf serum (FCS), penicillin (100 kU L^−1) and streptomycin (0.1 g L^−1) at 37° C. in a 5% CO2-95% air atmosphere. Human gastric SGC7901 cells and prostate PC3 were incubated with these compounds at fixed concentrations or with water as a control to assess the inhibitory effect on cell growth. […] The cell survival versus drug concentration is plotted. Cytotoxicity was evaluated in vitro with reference to the IC50 value. The half maximal inhibitory concentration (IC50) is a measure of the effectiveness of a compound to inhibit biological or biochemical functions. According to the FDA, IC50 represents the concentration of a drug/compound/complex that is required for 50% inhibition in vitro. It is evaluated from the survival curves as the concentration needed for a 50% reduction of survival. IC50 values are expressed in μM. The IC50 values were calculated from dose-response curves obtained in replicate experiments.
(§3) The in vitro cytotoxic effect of mixed ligand gold(III) diamine complexes against androgen-resistant prostate PC3 and human gastric SGC7901 cancer cells were studied using MTT assay. […]

For series [5], the system named is SGC7901 cells. Description: In vitro cytotoxic MTT assay, IC50. Conditions: 72 h exposure. It counts as cell-based, human. On the procedure:
as §2, §3

The subject of series [6] is SGC7901 cells. The conditions noted are these: cited from earlier work; for cytotoxicity with respect to cisplatin: SGC7901 cells.
The nature of series [7]: Stability by 1H and 13C NMR in D2O and DMSO-d6/D2O. It counts as physicochemical. The conditions noted are these: DMSO-d6/D2O (2/1 v/v), room temperature. On the procedure: The stability of complexes 1, 2 and 3 were tested in water as well as in a mixture of solvents i.e. DMSO/water (2/1 in v/v ratio) by ^1H and ^13C NMR measurements. To investigate the structural stability of the complexes, NMR spectra of the complexes dissolved in D2O; and in mixed DMSO-d6/D2O (2/1 in v/v ratio) solution were obtained just after dissolution, 24 h and 1 week at room temperature in mixed DMSO-d6/D2O and at 37° C. in D2O. At least 20 mg of complexes 1, 2 and 3 in 1 mL D2O at 37° C.; and in 1 mL DMSO-d6/D2O (2/1:v/v) at room temperature were subjected to ^1H and ^13C NMR measurements and followed by their spectral analysis. Immediately after dissolution of complexes 1, 2 and 3 in the respective solvents and duplicate samples were then stored at room temperature and 37° C., respectively, and analyzed again after 24 h and 1 week in order to determine stability of complexes. Since the complexes were not used beyond a week after dissolution, so NMR measurements were limited to one week.
NMR spectra of the complexes were obtained upon immediate dissolution to serve as reference spectra and later at 24 h and after 7 days at 37° C. in D2O and at room temperature in mixed DMSO-d6/D2O in order to determine their stability. […] For example, FIGS. 12A-B and 13A-B illustrated, respectively, the ^1H and ^13C NMR profiles of the compound 1 at just after mixing and after 7 days.

In series [8] the test system is PC3 cells. The conditions noted are these: cited from earlier work.
For series [9], the system named is chronic lymphocytic leukemia cells (CLL). The conditions noted are these: cited from earlier work.

In the case of `NCCN.N[C@@H]1CCCC[C@H]1N.[Cl][Au]([Cl])[Cl]` (racemic) [Complex 2, trans-(±)-1,2-diaminocyclohexane ethylenediamine gold(III) chloride], the “order of time dependent antiproliferative effect” value (“order” for short) in [1] and in [2] was “complex 1>complex 3>complex 2” in each case. In series [3], the “Ep, peak potential for reduction vs. ENH” value is 0.46 V.

`N.N.[Cl][Pt][Cl]` [Cisplatin]: the IC50 (in general, the concentration at which inhibition is half-maximal) turned out to be 1.1 µM in series [4] and 7.3 µM in series [5]. In addition, the “intrinsic resistance of SGC7901 relative to PC3 cells” value in series [6] (SGC7901 vs PC3) is reported as 7-8 fold.

For the molecule `NCCN.N[C@@H]1CCCC[C@@H]1N.[Cl][Au]([Cl])[Cl]` [Complex 1, cis-1,2-diaminocyclohexane ethylenediamine gold(III) chloride], the “order” value in series [1] and in [2] was “complex 1>complex 3>complex 2” each time. Further, the “Ep, peak potential for reduction vs. ENH” value in [3] is 0.49 V.

For `NCCN.N[C@H]1CCCC[C@@H]1N.[Cl][Au]([Cl])[Cl]` [Complex 3, (S,S)-(+)-1,2-diaminocyclohexane ethylenediamine gold(III) chloride], the “order” value in [1] and in series [2] was “complex 1>complex 3>complex 2” in each case. Moreover, the “dissociation of ethylenediamine (en) after 7 days” value in series [7] came to 25%. For the same molecule, the “Ep, peak potential for reduction vs. ENH” value in [3] was found to be 0.51 V.

`NCCN.[Au+3].[Cl-].[Cl-].[Cl-]` [[(en)AuCl2]Cl]: the “lower cytotoxicity as compared to cisplatin” value in [8] is given as 7-9 fold. Also, in [6], the “cytotoxicity with respect to cisplatin” value is given as “almost two fold more cytotoxic”. For the same molecule, the “cytotoxicity profile compared to cisplatin” value in series [9] was “comparable to cisplatin”.

With `NCCN.NCCN.[Au+3].[Cl-].[Cl-].[Cl-]` [[Au(en)2]Cl3], the “cytotoxic effect compared to cisplatin” value in series [8] is “comparable to that of cisplatin”. Moreover, the “cytotoxicity with respect to cisplatin” value in series [6] was “slightly lower cytotoxicity”.
